Experiments:
Type in all cases: physicochemical, human
[1] = LC/MS of blood plasma sample: time from blood collection to cooling of blood (Table E); set-up: key to Rate of increase or decrease / Rate of increase or decrease (first value, increase): detection intensity relative to ≤1 min to cooling = 1; settings: for Increase or decrease: detection intensity, blood collection to cooling 5 minutes or more vs 1 minute or less; for Rate of increase or decrease (second value, decrease) / Rate of increase or decrease (first value, increase): different from individual to individual, relative to 1 at 1 minute or less, collection to cooling 5 minutes; for Rate of increase or decrease (second value, decrease): individuals with decrease; for Rate of increase or decrease (first value, increase): individuals with increase
[2] = LC/MS of serum sample: time from centrifugation to isolation (Table K); set-up: key to Rate of increase or decrease: detection intensity relative to the 30-minute value set as 1; settings: for Rate of increase or decrease: after 1 hour from centrifugation to isolation, detection intensity relative to 1 at 30 minutes; for Increase or decrease / Time when compound is affected: serum sample, LC/MS; for Increase or decrease: detection intensity vs 30 minutes from centrifugation to isolation; for Time when compound is affected: time from centrifugation to isolation, detection intensity changed by 30% or more vs 30 minutes
Description: After standing, the blood sample was subjected to centrifugation under a condition of room temperature, 3500 rpm, and 5 minutes. […] After centrifugation, the blood-collecting vessel was left to stand at room temperature, and the serum was isolated during this time. Here, in order to investigate how the detection intensity of molecules contained in the sample was affected in cases where the time during which the blood-collecting vessel was left at room temperature was set to 1 hour and 6 hours as compared to that in a case where the time was set to 30 minutes, preparations were performed under the respective conditions of 30 minutes, 1 hour, and 6 hours. The obtained serum sample was frozen and stored. Here, in order to investigate how the detection intensity of molecules contained in the sample was affected in cases where freezing and thawing was performed 4 times, 6 times, and 10 times after freezing as compared to that in a case where freezing and thawing was performed 2 times after freezing, freezing and thawing was performed under the respective conditions of 2, 4, 6, and 10 times.
Frozen blood plasma samples and serum samples were subjected to GC/MS or LC/MS. In GC/MS, the blood plasma samples and serum samples were subjected to methoxymation and trimethylsilylation and then introduced to GC-MS.
Analysis column: Discovery HS F5-3 (inner diameter of 2.1 mm, length of 150 mm, film thickness of 3 μm) (Sigma-Aldrich)
Column temperature: 40° C.
(A) 0.1% formic acid (dissolved in water)
(B) 0.1% formic acid (dissolved in acetonitrile)
Flow velocity: 0.25 mL/min
Ionization method: electrospray
Temperature: • Desolvation Line (DL) temperature: 250° C. • Heat block temperature: 400° C. • Interface temperature: 300° C.
Gas flow rate: • Nebulizer gas flow rate: 3.0 L/min • Drying gas flow rate: 10.0 L/min • Heating gas flow rate: 10.0 L/min
Mode: multiple reaction monitoring (MRM)
The rate of increase or decrease in Table K is the value of detection intensity relative to 1 that is the detection intensity in a case where the time from centrifugation to isolation is set to 30 minutes.

[3] = LC/MS of serum sample: time from blood collection to centrifugation (Table J); settings: for Rate of increase or decrease: after 4 hours from blood collection to centrifugation, detection intensity relative to 1 at 15 minutes; for Increase or decrease / Time when compound is affected: serum sample, LC/MS; for Increase or decrease: detection intensity vs 15 minutes from blood collection to centrifugation; for Time when compound is affected: time from blood collection to centrifugation, detection intensity changed by 30% or more vs 15 minutes
Outline: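 Detection intensities are expressed relative to 1 for samples centrifuged 15 min after blood collection; centrifugation was at room temperature, 3500 rpm, 5 min. Frozen serum was run by electrospray LC-MS in MRM mode, with 0.1% formic acid water/acetonitrile at 0.25 mL/min on a 40 °C F5 column.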

[4] = LC/MS of blood plasma sample: number of times of freezing and thawing (Table F); settings: for Rate of increase or decrease: detection intensity relative to 1 at 2 times, freezing and thawing 4 times; for Increase or decrease: detection intensity
Outline: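 Values are detection intensities normalised to 1 for plasma thawed twice, compared against 4, 6 and 10 freeze-thaw cycles. Measured by electrospray LC/MS in MRM mode, formic acid water/acetonitrile mobile phase, column at 40° C. Plasma came from EDTA blood, cooled to 4° C and spun at 3000 rpm for 15 min.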

[5] = GC/MS of serum sample: time from centrifugation to isolation (Table H); set-up: key to Rate of increase or decrease / Rate of increase or decrease (first value, increase): detection intensity relative to 1 at 30 min centrifugation-to-isolation
Outline: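 Values are GC/MS (EI, MRM) detection intensities of methoxymated/trimethylsilylated serum, normalised to 1 for the 30-min sample. Serum was isolated 30 min, 1 h or 6 h after room-temperature centrifugation (3500 rpm, 5 min) of blood.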

[6] = LC/MS of serum sample: number of times of freezing and thawing (Table M); set-up: key to Rate of increase or decrease: detection intensity relative to 1 at 2 freeze-thaw cycles; settings: for Number of times when compound is affected / Increase or decrease: serum sample, LC/MS; for Number of times when compound is affected: detection intensity changed by 30% or more vs 2 times of freezing and thawing; for Increase or decrease: detection intensity vs 2 times of freezing and thawing
Outline: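 Values are detection intensities relative to serum thawed twice, versus 4, 6 or 10 freeze-thaw cycles. Serum came from blood spun at room temperature, 3500 rpm for 5 minutes. Analysis: electrospray LC/MS in MRM mode, Discovery HS F5-3 column, 40° C, 0.1% formic acid in water and acetonitrile.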

[7] = GC/MS of serum sample: time from blood collection to centrifugation (Table G); settings: blood collection to centrifugation
Outline: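 Values express detection intensity as a ratio to the sample centrifuged 15 minutes after blood collection (taken as 1). Serum was derivatized by methoxymation and trimethylsilylation, then analysed by electron-ionization GC/MS using multiple reaction monitoring on a BPX5 column ramped from 60 to 330° C.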

[8] = LC/MS of blood plasma sample: time from blood collection to centrifugation (Table D); settings: blood collection to centrifugation; for Rate of increase or decrease: detection intensity relative to 1 at 15 minutes, after 4 hours; for Increase or decrease: detection intensity, after 4 hours vs 15 minutes
Outline: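 Detection intensities are expressed relative to samples centrifuged 15 min after collection (=1), measured by electrospray LC/MS in MRM mode (Discovery HS F5-3, 40 °C, formic acid water/acetonitrile gradient at 0.25 mL/min). EDTA blood from a healthy donor was held at 4 °C, centrifuged at 4 °C, 3000 rpm, 15 min, and plasma frozen.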

[9] = GC/MS of serum sample: number of times of freezing and thawing (Table I); set-up: key to Rate of increase or decrease / Rate of increase or decrease (first value, increase): detection intensity relative to 2 freeze-thaw cycles = 1; settings: serum, GC/MS
Outline: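 Detection intensities are ratios to the value after two freeze–thaw cycles, which is set as 1, compared against 4, 6 and 10 cycles. Analysis used methoxymation and trimethylsilylation derivatization, then GC/MS with EI ionization and multiple reaction monitoring on a BPX5 column. Serum came from blood held at room temperature and spun at 3500 rpm for 5 min.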

[10] = freezing and thawing 4 times vs 2 times
[11] = 4 times of freezing and thawing, detection intensity relative to 1 at 2 times

Row | Increase or decrease [1] | Rate of increase or decrease [2] | Increase or decrease [2] | Time when compound is affected [2] | Rate of increase or decrease [3] | Increase or decrease [3] | Time when compound is affected [3] | Rate of increase or decrease [4] | Increase or decrease [4, 10] | Rate of increase or decrease [6, 11] | Number of times when compound is affected [6] [times] | Increase or decrease [6] | Rate of increase or decrease [8] | Increase or decrease [8] | Rate of increase or decrease (second value, decrease) [1] | Rate of increase or decrease (first value, increase) [1] | Structure (SMILES) | further results
1 | Increase | 0.07 | Decrease | After 1 hour hours | 0.29 | Decrease | After 4 hours | 0.58 | Decrease | 0.54 | 4 | Decrease | 1.39 | Increase |  |  | Nc1ncnc2c1ncn2[C@@H]1O[C@H](CO)[C@@H](O)[C@H]1O [Adenosine] | Rate of increase or decrease ([1]; detection intensity relative to 1 at 1 minute or less, blood collection to cooling 5 minutes): 1.52; Rate of increase or decrease ([5]; detection intensity relative to 1 at 30 minutes, after 1 hour): 3.11; Increase or decrease ([5]; detection intensity, after 1 hour vs 30 minutes): Increase; Rate of increase or decrease ([7]; detection intensity relative to 1 at 15 minutes, after 4 hours): 0.17; Increase or decrease ([7]; detection intensity, after 4 hours vs 15 minutes): Decrease; Rate of increase or decrease ([9]; detection intensity relative to 1 at 2 times, freezing and thawing 4 times): 0.36; Increase or decrease ([9]; detection intensity, freezing and thawing 4 times vs 2 times): Decrease
2 | Different from individual | 0.61 | Decrease | After 1 hour hours | 0.17 | Decrease | After 4 hours |  |  | 1.44 | 4 | Increase | 2.26 | Increase | 0.64 | 18.25 | OC[C@H]1O[C@@H](n2cnc3c(O)ncnc32)[C@H](O)[C@@H]1O [Inosine] | Increase or decrease ([4]; freezing and thawing 6 times vs 2 times): Different from individual; Rate of increase or decrease (second value, decrease) ([4]; different from individual to individual, individuals with decrease, relative to 1 at 2 times, freezing and thawing 6 times): 0.53; Rate of increase or decrease (first value, increase) ([4]; different from individual to individual, individuals with increase, relative to 1 at 2 times, freezing and thawing 6 times): 1.67
3 | Different from individual | 1.51 | Increase | After 1 hour hours | 2.82 | Increase | After 4 hours | 2.09 | Increase |  | 6 | Different from individual | 0.66 | Decrease | 0.49 | 1.40 | Nc1ncnc2c1ncn2[C@@H]1O[C@H](CSCC[C@H](N)C(=O)O)[C@@H](O)[C@H]1O [S-adenosylhomocysteine] | Rate of increase or decrease ([6]; 6 times of freezing and thawing, relative to 1 at 2 times, different from individual to individual, first value (increase)): 1.62; Rate of increase or decrease ([6]; 6 times of freezing and thawing, relative to 1 at 2 times, different from individual to individual, second value (decrease)): 0.49
